The subject of data set [1] is Intercellular Adhesion Molecule type 1 (ICAM-1). Briefly: Cell-ELISA, TNF-α induced ICAM-1 expression on HUVECs. Particulars: Homo sapiens, HUVEC; HUVECs pretreated 2 hours, TNF-α 16 hours. Type of data set: cell-based. As for the experimental part: (§1) FIG. 4. Inhibition of TNF-α induced expression Intercellular Adhesion Molecule type 1 (ICAM-1) and Vascular Cell Adhesion Molecule type 1 (VCAM-1) on HUVECs by IICT-TA67. To determine the effect of IICT-TA67 on TNF-α induced cell adhesion molecules such as ICAM-1 and VCAM-1, HUVECs were pretreated with various concentrations of IICT-TA67 for 2 hours followed by induction with TNF-α for 16 hours. The cell surface expression of cell adhesion molecules was measured by ELISA.
(§2) Cell-ELISA was used for measuring the expression of ICAM-1 on surface of endothelial cells. Endothelial cells were incubated with or without IICT-TA67 at desired concentrations for the required period, followed by treatment with TNF-α (10 ng/ml) for 16 h for ICAM-1 and VCAM-1 expression. The cells were fixed with 1.0% glutaraldehyde. Non-specific binding of antibody was blocked by using skimmed milk (3.0% in PBS). Cells were incubated overnight at 4° C. with anti-ICAM-1 mAb anti-VCAM-1 antibody, diluted in blocking buffer, the cells were further washed with PBS and incubated with peroxidase-conjugated goat anti-mouse secondary Abs. […] Reaction was stopped by the addition of 2 N sulfuric acid and absorbance at 490 nm was measured using microplate reader (Spectramax 190, Molecular Devices, USA).
(In general: An ELISA detects its analyte on a solid surface through an enzyme-linked reagent.)

Data set [2] deals with Vascular Cell Adhesion Molecule type 1 (VCAM-1). The experiment in a line: Cell-ELISA, TNF-α induced VCAM-1 expression on HUVECs. Type of data set: cell-based. The settings on record: Homo sapiens, HUVEC; HUVECs pretreated 2 hours, TNF-α 16 hours. As for the experimental part: as §1, §2
The nature of data set [3]: Balb/c 3T3 Neutral Red Uptake (NRU) cytotoxicity assay. Type of data set: cell-based. Particulars: mouse. The text has this: (§3) FIG. 8. IICT-TA67 is not toxic. To evaluate the cytotoxicity of test chemical (IICT-TA67) BALB/c 3T3 cell line was used for Neutral Red Uptake (NRU) cytotoxicity test. The test result has been used to determine IC50 for IICT-TA67 and acute oral toxicity (LD50) in rodent was predicted.
(§4) Basal cytotoxicity of IICT-TA67 has been performed to measure IC50 and thereafter predict in vivo acute oral LD50 values in rodent by using Halle's Registry of cytotoxicity (RC) prediction model: log (LD50)=0.435×log (IC50)+0.625 (Halle, 1998; Spielmann et al., 1999). Balb/c 3T3 Neutral Red Dye Uptake (NRU) cytotoxicity assay procedure was adopted (Liebsch & Spielmann 1995). In brief 3T3 cell were grown in 96 well microtitre plates and exposed to IICT-TA-67. After 48-hour incubation, the test material was removed and Neutral red (NR) solution was applied to the cells. The cells were incubated again, the excess NR solution was removed and finally NR was eluted from the cells. The NRU was determined by using a microtitre plate reader to measure the optical density at 540 nm of the eluted dye in 96 well plate. A calculation of cell viability expressed as NRU was made for each concentration of the test chemical by using the mean NRU of 6 replicate values per test concentration. The cell viability value was compared with the mean NRU of all vehicle control values and relative cell viability was then expressed as percent of untreated vehicle control. […] Although the percentage of viability is slightly more than 95% at 50 μg/ml of IICT-67, 30 μg/ml (% viability of cells is 98%)

In a further data set the test system is BALB/c 3T3 cell line. The description is as above. Particulars: for toxicity: NRU cytotoxicity test (FIG. 8). Type of data set: cell-based.
Excerpt: as §3, §4

Another data set relates to rodent. Briefly: Prediction of acute oral LD50 from the IC50 by Halle's Registry of cytotoxicity (RC) prediction model. Particulars: log (LD50)=0.435×log (IC50)+0.625.
Excerpt: as §3
Basal cytotoxicity of IICT-TA67 has been performed to measure IC50 and thereafter predict in vivo acute oral LD50 values in rodent by using Halle's Registry of cytotoxicity (RC) prediction model: log (LD50)=0.435×log (IC50)+0.625 (Halle, 1998; Spielmann et al., 1999). Balb/c 3T3 Neutral Red Dye Uptake (NRU) cytotoxicity assay procedure was adopted (Liebsch & Spielmann 1995). In brief 3T3 cell were grown in 96 well microtitre plates and exposed to IICT-TA-67. After 48-hour incubation, the test material was removed and Neutral red (NR) solution was applied to the cells. […] The NRU was determined by using a microtitre plate reader to measure the optical density at 540 nm of the eluted dye in 96 well plate. A calculation of cell viability expressed as NRU was made for each concentration of the test chemical by using the mean NRU of 6 replicate values per test concentration. The cell viability value was compared with the mean NRU of all vehicle control values and relative cell viability was then expressed as percent of untreated vehicle control. […]

Values after ≈ are worked out from the molar mass of the structure shown.

Usually IC50 stands for the concentration that gives 50% inhibition.

In the case of `COc1ccc(C(c2[nH]c3ccccc3c2CC(=O)O)c2[nH]c3ccccc3c2CC(=O)O)cc1Oc1nc(NC2CC2)nc(NC2CC2)n1` [Compound 7, 2,2′-[2,2′-3-(4,6-bis-cyclopropylamino)-1,3,5-triazin-2-yl-oxy-4-methoxy-phenyl]-methylene-bis-(1H-indole-3,3-diyl)-diacetic acid], the IC50 was 10.6 µg/mL (≈ 15.7 µM) in data set [1] and 16.6 µg/mL (≈ 24.6 µM) in data set [2]. In data set [3], this compound registered an IC50 at 48 h of 32 µg/mL (≈ 47.5 µM). Moreover, in the data set with BALB/c 3T3 cell line (30 μg/ml), the “% viability of cells” value was found to be 98%. Besides, in the data set with BALB/c 3T3 cell line (50 μg/ml), the percentage of viability entry is recorded as “more than 95%”. Further, the “toxicity” value in the data set with BALB/c 3T3 cell line (listed as IICT-67) is “does not seem to be toxic to endothelial cells”; in the data set on BALB/c 3T3 cell line (listed as IICT-TA67), “not toxic”. Moreover, the “predicted acute oral LD50” value with rodent was 430 mg/kg body weight.

The values are drawn from patent US9085559B2, “Triazine-aryl-bis-indoles and process for preparation thereof” (COUNCIL OF SCIENTIFIC & INDUSTRIAL RESEARCH, priority 2010, dated 2015).
